Data set [1] has as its target T1, glycerol-3-phosphate cytochrome c reductase (G3PDH+CIII) (Homo sapiens, UniProt P00156).
T1 construct: the pellets were permeabilized by two freeze-thaw cycles before enzyme assays; endogenous in cells; host or cells: HEK293, freeze-thawed cell pellets
As to the kind of experiment: Glycerol-3-phosphate cytochrome c reductase (GCCR) activity, freeze-thawed HEK cells. It is filed as biochemical. The protocol: (§1) The cells were grown in T75 flasks using 10 ml Dulbecco’s modified Eagle's minimal essential medium (DMEM) either containing 1 or 4.5 g/l glucose, 4 mM glutamine (glutamax; Gibco Thermo Fisher Scientific, MA), 2 mM pyruvate and 200 μM uridine (permissive medium, thereafter referred as GlucoMax) or lacking glucose, pyruvate and uridine but containing 4 mM glutamine (nonpermissive medium, thereafter referred as MitoMax; S1 Table). All media were supplemented with 10% fetal calf serum and 100 U/mL each penicillin and streptomycin. HEK293 human embryonic kidney cells were cultured in DMEM containing 4.5 g/L glucose, 4 mM glutamine, 10% fetal calf serum, 200 μM uridine, 2 mM pyruvate, and 100 U/mL each penicillin and streptomycin [9]. Cell pellets (1,500 g for 5 min) were kept frozen (-80°C), and for biochemical studies, the pellets were permeabilized by two freeze-thaw cycles before enzyme assays.
(§2) RC enzyme activities were spectrophotometrically measured using a pseudo-double-wavelength spectrophotometer (Cary 60, Agilent). Malonate-sensitive succinate quinone dichlorophenolindophenol (DCPIP) reductase (SQDR), as an indicator of the activity of the isolated SDH enzyme (isolated CII), and glycerol-3-phosphate quinone DCPIP reductase (GQDR), as a measure of the activity of the isolated glycerol-3-phosphate dehydrogenase (G3PDH), were assayed as previously described. To study the effect of SDHIs on the RC, we had to take into consideration the fact that these inhibitors act through binding to quinone-binding sites in the RC. Accordingly, we observed that the extent of the inhibitory effects of these substances varies with the addition of exogenous quinones (Fig 1). […] With this aim, we measured the malonate-sensitive succinate cytochrome c reductase (SDH+CIII), glycerol-3-phosphate cytochrome c reductase (G3PDH+CIII) and antimycin-sensitive quinol cytochrome c reductase (CIII) as previously described.
(§3) The effects of eight different SDHIs (up to 500 μM; S2 Fig) were determined on four different biological materials. Because IC50 are known to be affected by the actual absolute activity of the tested enzyme, these IC50 were quantified using similar levels of SDH enzyme activity during the assay. IC50 values were determined using the AAT Bioquest IC50 calculator tool (https://www.aatbio.com/tools/ic50-calculator).

Data set [2] has as its target succinate cytochrome c reductase (SDH+CIII) (Homo sapiens, UniProt O14521+P21912+Q99643). As to the kind of experiment: Malonate-sensitive succinate cytochrome c reductase (SCCR) activity, freeze-thawed HEK cells. The data set is classed as biochemical. On the set-up: the pellets were permeabilized by two freeze-thaw cycles before enzyme assays; endogenous in cells; host or cells: HEK293, freeze-thawed cell pellets. The conditions noted are these: IC50 SCCR, no exogenous quinone, n ≥ 3. The protocol:
as §1, §2, §3

In data set [3] the target is T2, quinol cytochrome c reductase (CIII) (Homo sapiens, UniProt P00156).
T2 construct: the pellets were permeabilized by two freeze-thaw cycles before enzyme assays; endogenous in cells; host or cells: HEK293, freeze-thawed cell pellets
As to the kind of experiment: Antimycin-sensitive quinol cytochrome c reductase (QCCR) activity, freeze-thawed HEK cells. It is filed as biochemical. On the procedure: as §1, §2, §3

The conditions of data set [4]: according to European regulations; ref European regulations; cited from earlier work.

Bounds are passed on as bounds.

Sequence of succinate cytochrome c reductase (SDH+CIII) (P21912 29-280): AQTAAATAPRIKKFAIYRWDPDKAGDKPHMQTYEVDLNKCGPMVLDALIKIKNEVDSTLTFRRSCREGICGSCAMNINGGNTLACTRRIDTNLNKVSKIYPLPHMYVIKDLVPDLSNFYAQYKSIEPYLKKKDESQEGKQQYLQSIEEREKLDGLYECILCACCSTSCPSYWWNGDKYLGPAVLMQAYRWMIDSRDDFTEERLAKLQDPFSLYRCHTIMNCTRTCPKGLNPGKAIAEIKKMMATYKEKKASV
Sequence of succinate cytochrome c reductase (SDH+CIII) (Q99643 30-169): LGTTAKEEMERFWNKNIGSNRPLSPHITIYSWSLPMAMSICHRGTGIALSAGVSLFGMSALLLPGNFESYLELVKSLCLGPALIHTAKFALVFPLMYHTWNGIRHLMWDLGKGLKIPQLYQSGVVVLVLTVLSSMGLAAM
Sequence of succinate cytochrome c reductase (SDH+CIII) (O14521 57-159): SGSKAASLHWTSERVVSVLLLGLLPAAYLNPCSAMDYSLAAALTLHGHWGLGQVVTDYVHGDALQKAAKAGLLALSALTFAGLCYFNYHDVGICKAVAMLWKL
Sequence of succinate cytochrome c reductase (SDH+CIII) (P31040 43-664 partner): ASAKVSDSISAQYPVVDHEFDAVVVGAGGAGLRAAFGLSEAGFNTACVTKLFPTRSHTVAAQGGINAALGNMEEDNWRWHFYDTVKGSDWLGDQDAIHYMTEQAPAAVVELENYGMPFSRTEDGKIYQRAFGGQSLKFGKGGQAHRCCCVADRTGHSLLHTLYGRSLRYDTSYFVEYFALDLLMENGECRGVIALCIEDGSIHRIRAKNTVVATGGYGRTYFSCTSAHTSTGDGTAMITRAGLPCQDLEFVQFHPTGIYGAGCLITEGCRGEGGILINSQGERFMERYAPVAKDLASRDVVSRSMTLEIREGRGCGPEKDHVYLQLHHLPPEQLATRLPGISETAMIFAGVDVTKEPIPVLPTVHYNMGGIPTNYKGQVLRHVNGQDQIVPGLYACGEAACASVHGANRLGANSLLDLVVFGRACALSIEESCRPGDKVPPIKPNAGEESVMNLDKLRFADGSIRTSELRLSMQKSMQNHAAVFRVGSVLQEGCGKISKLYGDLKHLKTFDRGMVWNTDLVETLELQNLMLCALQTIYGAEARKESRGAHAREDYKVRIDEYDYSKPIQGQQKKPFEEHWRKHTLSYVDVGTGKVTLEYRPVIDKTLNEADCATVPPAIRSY

Regarding `O=C(NCCc1ncc(C(F)(F)F)cc1Cl)c1ccccc1C(F)(F)F` [Fluopyram, fluopyram], the figures for the IC50 in data set [1], in data set [2] and in data set [3] were more than 500 µM, 160 µM and more than 500 µM, respectively. The “ADI (Acceptable Daily Intake)” value in data set [4] was 0.012 mg/kg/day.

Values taken from publication PMC6837341, “Evolutionarily conserved susceptibility of the mitochondrial respiratory chain to SDHI pesticides and its consequence on the impact of SDHIs on human cultured cells” (PLoS ONE, 2019).
